Experimental data: ChEMBL document CHEMBL6087426, “Design, synthesis and bioactivity evaluation of cinnamic acid derivatives as potential anti-inflammatory agents against LPS-induced acute lung injury” (Bioorg Med Chem Lett, 2025)
Blank lines part the entries; values can stand above or below the compound they belong to. Activity calls are given as the source filed them. No cut-off for these calls is given here.

Experiments:
J774.A1 [1] = assay: Anti-inflammatory activity against mouse J774.A1 cells assessed as inhibition of LPS-induced IL-6 production at 10 uM preincubated for 30 mins followed by LPS stimulation for 24 hrs by ELISA relative to control; type: functional; conditions: time 24.5 hrs
Mus musculus [2] = assay: Anti-inflammatory activity in C57BL/6 mouse assessed as decrease in LPS-induced pulmonary congestion in lung tissue at 20 mg/kg pretreated for 30 mins followed by LPS stimulation for 6 hrs by H and E staining based analysis; type: functional, organism-based; conditions: time 6.5 hrs
Mus musculus [3] = assay: Anti-inflammatory activity in C57BL/6 mouse assessed as decrease in LPS-induced wet to dry ratio in lung tissue at 20 mg/kg pretreated for 30 mins followed by LPS stimulation for 6 hrs; type: functional, organism-based; conditions: time 6.5 hrs
Mus musculus [4] = assay: Anti-inflammatory activity in C57BL/6 mouse assessed as decrease in LPS-induced destruction in lung tissue at 20 mg/kg pretreated for 30 mins followed by LPS stimulation for 6 hrs by H and E staining based analysis; type: functional, organism-based; conditions: time 6.5 hrs
Mus musculus [5] = assay: Anti-inflammatory activity in C57BL/6 mouse assessed as decrease in LPS-induced IL-6 level in BALF at 20 mg/kg pretreated for 30 mins followed by LPS stimulation for 6 hrs by ELISA; type: functional, organism-based; conditions: time 6.5 hrs
Mus musculus [6] = assay: Anti-inflammatory activity in C57BL/6 mouse assessed as decrease in LPS-induced IL-6 level in serum at 20 mg/kg pretreated for 30 mins followed by LPS stimulation for 6 hrs by ELISA; type: functional, organism-based; conditions: time 6.5 hrs
J774.A1 [7] = assay: Anti-inflammatory activity against mouse J774.A1 cells assessed as inhibition of LPS-induced IL-6 production preincubated for 30 mins followed by LPS stimulation for 24 hrs by ELISA; type: functional, cell-based
Mus musculus [8] = assay: Anti-inflammatory activity in C57BL/6 mouse assessed as decrease in LPS-induced TNF-alpha level in BALF at 20 mg/kg pretreated for 30 mins followed by LPS stimulation for 6 hrs by ELISA; type: functional, organism-based; conditions: time 6.5 hrs
Mus musculus [9] = assay: Anti-inflammatory activity in C57BL/6 mouse assessed as decrease in LPS-induced macrophage infiltration in lung tissue at 20 mg/kg pretreated for 30 mins followed by LPS stimulation for 6 hrs by IHC analysis; type: functional, organism-based; conditions: time 6.5 hrs
Mus musculus [10] = assay: Anti-inflammatory activity in C57BL/6 mouse assessed as decrease in LPS-induced interstitial edema in lung tissue at 20 mg/kg pretreated for 30 mins followed by LPS stimulation for 6 hrs by H and E staining based analysis; type: functional, organism-based; conditions: time 6.5 hrs
Mus musculus [11] = assay: Anti-inflammatory activity in C57BL/6 mouse assessed as decrease in LPS-induced thickened alveolar septa in lung tissue at 20 mg/kg pretreated for 30 mins followed by LPS stimulation for 6 hrs by H and E staining based analysis; type: functional, organism-based; conditions: time 6.5 hrs
Mus musculus [12] = assay: Anti-inflammatory activity in C57BL/6 mouse assessed as decrease in LPS-induced TNF-alpha level in serum at 20 mg/kg pretreated for 30 mins followed by LPS stimulation for 6 hrs by ELISA; type: functional, organism-based; conditions: time 6.5 hrs
J774.A1 [13] = assay: Cytotoxicity against mouse J774.A1 cells assessed as cell survival at 10 uM by MTT assay; type: toxicity, cell-based; conditions: j774.a1, 10 µM
Mus musculus [14] = assay: Anti-inflammatory activity in C57BL/6 mouse assessed as decrease in LPS-induced total protein level in BALF at 20 mg/kg pretreated for 30 mins followed by LPS stimulation for 6 hrs; type: functional, organism-based; conditions: time 6.5 hrs
Mus musculus [15] = assay: Anti-inflammatory activity in C57BL/6 mouse assessed as decrease in LPS-induced inflammatory infiltration in lung tissue at 20 mg/kg pretreated for 30 mins followed by LPS stimulation for 6 hrs by H and E staining based analysis; type: functional, organism-based; conditions: time 6.5 hrs

SMILES: CCOc1ccc(-c2cnc(NC(=O)/C=C/c3ccccc3)s2)cc1
- inhibition at 10 µM (J774.A1 [1]): 37.6%

SMILES: O=C(O)/C=C/c1ccccc1 [CINNAMIC ACID]
- inhibition at 10 µM (J774.A1 [1]): 26.4%

SMILES: O=C(/C=C/c1ccccc1)Nc1ncc(-c2cccc([N+](=O)[O-])c2)s1
- inhibition at 10 µM (J774.A1 [1]): 36.5%

SMILES: COc1ccc(-c2csc(NC(=O)c3cccc(F)c3)n2)cc1OC
- inhibition at 10 µM (J774.A1 [1]): 19.5%

SMILES: COc1ccc(-c2csc(NC(=O)c3ccc(F)cc3Cl)n2)cc1OC
- inhibition at 10 µM (J774.A1 [1]): 23.3%

- IC50 (J774.A1 [7]): 1060 nM
SMILES: O=C(/C=C/c1ccccc1)Nc1nc2ccccc2s1
- Activity (Mus musculus [2]): Active
- inhibition at 10 µM (J774.A1 [1]): 79.6%
- Activity (Mus musculus [3]): Active
- Activity (Mus musculus [4]): Active
- Activity (Mus musculus [5]): Active
- Activity (Mus musculus [6]): Active
- inhibition (J774.A1 [7]; dose 1.25-10 µM, time 24.5 hrs): Dose-dependent-effect
- Activity (Mus musculus [8]): Active
- Activity (Mus musculus [9]): Active
- Activity (Mus musculus [10]): Active
- Activity (Mus musculus [11]): Active
- Activity (Mus musculus [12]): Active
- Activity (J774.A1 [13]): Non-toxic
- Activity (Mus musculus [14]): Active
- Activity (Mus musculus [15]): Active

SMILES: COc1ccc(-c2csc(NC(=O)c3ccc(Cl)c([N+](=O)[O-])c3)n2)cc1OC
- inhibition at 10 µM (J774.A1 [1]): 64.1%
- Activity (J774.A1 [13]): Toxic

SMILES: O=C(/C=C/c1ccccc1)Nc1ncc(-c2ccc(C3CCCCC3)cc2)s1
- inhibition at 10 µM (J774.A1 [1]): 51.9%

SMILES: COc1ccc(-c2csc(NC(=O)c3ccccc3C)n2)cc1OC
- inhibition at 10 µM (J774.A1 [1]): 36.8%

SMILES: COc1ccc(-c2csc(NC(=O)c3ccc(F)cc3)n2)cc1OC
- inhibition at 10 µM (J774.A1 [1]): 51.2%

SMILES: O=C(/C=C/c1ccccc1)Nc1ncc(-c2ccc(Br)cc2)s1
- inhibition at 10 µM (J774.A1 [1]): 21.6%

SMILES: COc1ccc(-c2csc(NC(=O)c3ccc(C)cc3)n2)cc1OC
- inhibition at 10 µM (J774.A1 [1]): 38.8%

SMILES: COc1ccc(-c2cnc(NC(=O)/C=C/c3ccccc3)s2)cc1OC
- inhibition at 10 µM (J774.A1 [1]): 53%

SMILES: COc1cc(-c2cnc(NC(=O)/C=C/c3ccccc3)s2)cc(OC)c1OC
- inhibition at 10 µM (J774.A1 [1]): 72.7%
- Activity (J774.A1 [13]): Non-toxic

SMILES: COc1ccc(-c2csc(NC(=O)c3cccc(Br)c3)n2)cc1OC
- inhibition at 10 µM (J774.A1 [1]): 19.8%

SMILES: C[C@@H]1C[C@H]2[C@@H]3CCC4=CC(=O)C=C[C@]4(C)[C@@]3(F)[C@@H](O)C[C@]2(C)[C@@]1(O)C(=O)CO
- Activity (Mus musculus [3]): Active
- Activity (Mus musculus [5]): Active
- Activity (Mus musculus [6]): Active
- Activity (Mus musculus [8]): Active
- Activity (Mus musculus [9]): Active
- Activity (Mus musculus [12]): Active
- Activity (Mus musculus [14]): Active
